Laboratory results published in BindingDB's records for patent US12331046 (Nimbus Clotho, 2025).

Target: T1, CTP synthase 1 (Homo sapiens, UniProt P17812)
T1 sequence (P17812 whole entry): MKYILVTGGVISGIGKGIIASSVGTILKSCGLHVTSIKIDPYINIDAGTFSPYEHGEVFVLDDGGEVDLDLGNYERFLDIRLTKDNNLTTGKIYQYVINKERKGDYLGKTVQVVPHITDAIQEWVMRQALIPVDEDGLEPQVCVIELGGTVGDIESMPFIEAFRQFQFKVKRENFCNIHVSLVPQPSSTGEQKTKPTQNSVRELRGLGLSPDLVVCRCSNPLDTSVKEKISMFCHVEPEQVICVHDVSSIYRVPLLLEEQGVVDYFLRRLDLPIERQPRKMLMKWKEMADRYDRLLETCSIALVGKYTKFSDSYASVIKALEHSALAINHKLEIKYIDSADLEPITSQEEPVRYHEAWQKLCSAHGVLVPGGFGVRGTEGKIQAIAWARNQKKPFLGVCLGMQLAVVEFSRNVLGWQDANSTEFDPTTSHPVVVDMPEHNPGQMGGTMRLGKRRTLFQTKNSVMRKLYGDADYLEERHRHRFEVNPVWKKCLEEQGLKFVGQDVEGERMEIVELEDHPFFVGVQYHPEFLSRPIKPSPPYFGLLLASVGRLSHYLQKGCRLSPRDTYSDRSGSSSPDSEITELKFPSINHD
Assay: hCTPS1 Biochemical Assay
Method: Purified human CTPS1 protein was prepared in 1× assay buffer to the final working protein concentration required for the reaction. A 2.5 uL volume per well of human CTPS1 protein was mixed with 0.1 uL per well of test compound dissolved in DMSO and pre-incubated at 25 degrees C. for 10 minutes. 2.5 uL per well of the reaction precursors ATP (UltraPure ATP from ADP-Glo™ kit) and UTP were then added and pre-incubated for an additional 10 minutes at 25 degrees C. Finally, the reaction was initiated by the addition of 5 uL of the reaction precursors L-glutamine and GTP. The final concentration of all reaction components in the assay: ATP (120 uM), UTP (160 uM), GTP (60 uM), L-Glutamine (100 uM), DMSO (1%), hCTPS1 (25 nM). This mixture was incubated for an appropriate amount of time within the determined linear phase of the reaction at 25 degrees C. under sealed plate conditions with constant agitation at 500 revolutions per minute (rpm). ADP-Glo™ reagent was added for 60 minutes (10 uL per well) and subsequently ADP-Glo™ development reagent was added for 60 minutes (20 uL per well) prior to signal detection in a microplate reader (Envision Multilabel Reader, Perkin Elmer). Following each reagent addition over the course of the assay, assay plates were pulse centrifuged for 1 minute at 1000 rpm.

SMILES | IC50
CCc1c[nH]c2ncc(-c3ccc(C(=O)NCc4cc(NS(=O)(=O)C5CC5)ccn4)cc3)cc12 [US12331046, Compound I-38] | < 100 nM
CCOc1cncc(-c2cnc(C(=O)NCc3cc(F)cc(NS(=O)(=O)C4CC4)c3)s2)n1 [US12331046, Compound I-256] | < 100 nM

Continued, values first:

IC50 | SMILES
< 100 nM | CCOc1cncc(-c2cnc(C(=O)NCc3cccc(NS(=O)(=O)C(F)F)c3)s2)n1 [US12331046, Compound I-61]
< 100 nM | CCOc1cncc(-c2ccc(C(=O)NC(C#N)c3cc(NS(=O)(=O)C4CC4)ccn3)cc2)n1 (stereo not given) [US12331046, Compound I-64]
< 100 nM | CCOc1cncc(-c2nnc(C(=O)N[C@H](CC)c3cc(NS(=O)(=O)C4CC4)ccn3)s2)n1 [US12331046, Compound I-240]
